From patent US20160297833A1, “THIENOPYRIMIDINES AS MKNK1 AND MKNK2 INHIBITORS” (BAYER PHARMA AKTIENGESELLSCHAFT, priority 2013, published 2016)

Biological target: T1, human full-length MKNK1 (Homo sapiens, UniProt Q9BUB5, T385D)
T1 construct: GST (N); purchased Carna Biosciences 02-145; host or cells: insect cells (baculovirus expression system)
Assay: MKNK1 kinase high ATP assay (TR-FRET)
Format: biochemical
Details: Table 1; MKNK1 kinase high ATP assay, 2 mM ATP; read-out: MKNK1 IC50
Procedure: MKNK1 Kinase High ATP Assay
MKNK1-inhibitory activity at high ATP of compounds of the present invention after their preincubation with MKNK1 was quantified employing the TR-FRET-based MKNK1 high ATP assay as described in the following paragraphs.
As substrate for the kinase reaction the biotinylated peptide biotin-Ahx-[…] (C-terminus in amide form) was used, which can be purchased e.g. from the company Biosyntan (Berlin-Buch, Germany).
For the assay 50 nL of a 100 fold concentrated solution of the test compound in DMSO was pipetted into a black low volume 384 well microtiter plate (Greiner Bio-One, Frickenhausen, Germany), 2 μL of a solution of MKNK1 in aqueous assay buffer [50 mM HEPES pH 7.5, 5 mM MgCl2, 1.0 mM dithiothreitol, 0.005% (v/v) Nonidet-P40 (Sigma)] was added and the mixture was incubated for 15 min at 22° C. to allow pre-binding of the test compounds to the enzyme before the start of the kinase reaction. Then the kinase reaction was started by the addition of 3 μL of a solution of adenosine-tri-phosphate (ATP, 3.3 mM=>final conc. in the 5 μL assay volume is 2 mM) and substrate (0.1 μM=>final conc. in the 5 μL assay volume is 0.06 μM) in assay buffer and the resulting mixture was incubated for a reaction time of 30 min at 22° C. The concentration of MKNK1 was adjusted depending of the activity of the enzyme lot and was chosen appropriate to have the assay in the linear range, typical concentrations were in the range of 0.003 μg/mL. The reaction was stopped by the addition of 5 μL of a solution of TR-FRET detection reagents (5 nM streptavidine-XL665 [Cisbio Bioassays, Codolet, France] and 1 nM anti-ribosomal protein S6 (pSer236)-antibody from Invitrogen [#44921G] and 1 nM LANCE EU-W1024 labeled ProteinG [Perkin-Elmer, product no. AD0071]) in an aqueous EDTA-solution (100 mM EDTA, 0.1% (w/v) bovine serum albumin in 50 mM HEPES pH 7.5).
The resulting mixture was incubated for 1 h at 22° C. to allow the formation of complex between the phosphorylated biotinylated peptide and the detection reagents. Subsequently the amount of phosphorylated substrate was evaluated by measurement of the resonance energy transfer from the Eu-chelate to the streptavidine-XL. Therefore, the fluorescence emissions at 620 nm and 665 nm after excitation at 350 nm were measured in a TR-FRET reader, e.g. a Rubystar (BMG Labtechnologies, Offenburg, Germany) or a Viewlux (Perkin-Elmer). The ratio of the emissions at 665 nm and at 622 nm was taken as the measure for the amount of phosphorylated substrate.

T1 sequence (Q9BUB5 1-424 isoform Q9BUB5-2 T344D): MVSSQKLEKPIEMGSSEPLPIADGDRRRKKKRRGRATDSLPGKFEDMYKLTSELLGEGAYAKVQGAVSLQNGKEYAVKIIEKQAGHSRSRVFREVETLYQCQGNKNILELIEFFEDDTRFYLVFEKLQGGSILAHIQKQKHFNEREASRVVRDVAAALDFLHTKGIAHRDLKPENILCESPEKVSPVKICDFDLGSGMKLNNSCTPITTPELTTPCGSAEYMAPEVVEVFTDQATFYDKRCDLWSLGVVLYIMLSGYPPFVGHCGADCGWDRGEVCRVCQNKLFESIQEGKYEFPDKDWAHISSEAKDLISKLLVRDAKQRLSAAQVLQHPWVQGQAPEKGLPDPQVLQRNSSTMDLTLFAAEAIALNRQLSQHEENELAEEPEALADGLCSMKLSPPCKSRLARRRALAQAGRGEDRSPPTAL

COc1cc2[nH]ncc2cc1Nc1ncnc2sc3c(c12)CC[C@H](C(=O)N(C)OC)C3 [Example 198, (7S)—N-Methoxy-4-[(6-methoxy-1H-indazol-5-yl)amino]-N-methyl-5,6,7,8-tetrahydro[1]benzothieno[2,3-d]pyrimidine-7-carboxamide]
IC50: 0.2 nM

C[C@@H]1COCCN1C(=O)[C@H]1CCc2c(sc3ncnc(Nc4cc5cn[nH]c5cc4OCCN)c23)C1 [Example 130, [(7S)-4-{[6-(2-Aminoethoxy)-1H-indazol-5-yl]amino}-5,6,7,8-tetrahydro[1]benzothieno[2,3-d]pyrimidin-7-yl][(3R)-3-methylmorpholin-4-yl]methanone]
IC50: 0.9 nM

CSc1cc2[nH]ncc2cc1Nc1ncnc2sc3c(c12)CC[C@H](C(=O)N1C[C@@H](C)O[C@H](C)C1)C3 [Example 247, [(2R,6R)-2,6-Dimethylmorpholin-4-yl][(7S)-4-{[6-(methylsulfanyl)-1H-indazol-5-yl]amino}-5,6,7,8-tetrahydro[1]benzothieno[2,3-d]pyrimidin-7-yl]methanone]
IC50: 0.6 nM

CC(C)Oc1cc2[nH]ncc2cc1Nc1ncnc2sc3c(c12)CC[C@H](C(=O)N1CCCC1)C3 [Example 83, [(7S)-4-{[6-(Propan-2-yloxy)-1H-indazol-5-yl]amino}-5,6,7,8-tetrahydro[1]benzothieno[2,3-d]pyrimidin-7-yl](pyrrolidin-1-yl)methanone]
IC50: 0.3 nM

COc1cc2[nH]ncc2cc1Nc1ncnc2sc3c(c12)CC[C@H](C(=O)N(C)CC(C)(C)O)C3 [Example 124, (7S)—N-(2-Hydroxy-2-methylpropyl)-4-[(6-methoxy-1H-indazol-5-yl)amino]-N-methyl-5,6,7,8-tetrahydro[1]benzothieno[2,3-d]pyrimidine-7-carboxamide]
IC50: 0.3 nM

COc1cc2[nH]ncc2cc1Nc1ncnc2sc3c(c12)CC[C@H](C(=O)N1CCN(CCN(C)C)CC1)C3 [Example 50, {4-[2-(Dimethylamino)ethyl]piperazin-1-yl}{(7S)-4-[(6-methoxy-1H-indazol-5-yl)amino]-5,6,7,8-tetrahydro[1]benzothieno[2,3-d]pyrimidin-7-yl}methanone]
IC50: 0.1 nM

C[C@H]1COCCN1C(=O)[C@H]1CCc2c(sc3ncnc(Nc4cc5cn[nH]c5cc4OCCN4CCCC4)c23)C1 [Example 118, [(3S)-3-Methylmorpholin-4-yl][(7S)-4-({6-[2-(pyrrolidin-1-yl)ethoxy]-1H-indazol-5-yl}amino)-5,6,7,8-tetrahydro[1]benzothieno[2,3-d]pyrimidin-7-yl]methanone]
IC50: 92.3 nM

COc1cc2[nH]ncc2cc1Nc1ncnc2sc3c(c12)CC[C@H](C(=O)N(C)CCn1ccnc1)C3 [Example 171, (7S)—N-[2-(1H-Imidazol-1-yl)ethyl]-4-[(6-methoxy-1H-indazol-5-yl)amino]-N-methyl-5,6,7,8-tetrahydro[1]benzothieno[2,3-d]pyrimidine-7-carboxamide]
IC50: 0.4 nM

C[C@H](CNC(=O)OC(C)(C)C)Oc1cc2[nH]ncc2cc1Nc1ncnc2sc3c(c12)CC[C@H](C(=O)N(C)C)C3 [Example 259, tert-Butyl {(2R)-2-[(5-{[(7S)-7-(dimethylcarbamoyl)-5,6,7,8-tetrahydro[1]benzothieno[2,3-d]pyrimidin-4-yl]amino}-1H-indazol-6-yl)oxy]propyl}carbamate]
IC50: 14.5 nM

COc1cc2[nH]ncc2cc1Nc1ncnc2sc3c(c12)CC[C@@H](C(=O)N(C)C(C)C)C3 [Example 27, (7R)-4-[(6-Methoxy-1H-indazol-5-yl)amino]-N-methyl-N-(propan-2-yl)-5,6,7,8-tetrahydro[1]benzothieno[2,3-d]pyrimidine-7-carboxamide]
IC50: 38.9 nM

COc1cc2[nH]ncc2cc1Nc1ncnc2sc3c(c12)CC[C@H](C(=O)N(C)CCN(C)CCN(C)C)C3 [Example 57, (7S)—N-(2-{[2-(Dimethylamino)ethyl](methyl)amino}ethyl)-4-[(6-methoxy-1H-indazol-5-yl)amino]-N-methyl-5,6,7,8-tetrahydro[1]benzothieno[2,3-d]pyrimidine-7-carboxamide]
IC50: 0.7 nM

O=C([C@H]1CCc2c(sc3ncnc(Nc4ccc5[nH]ncc5c4)c23)C1)N1CC2(COC2)C1 [Example 12, [(7S)-4-(1H-Indazol-5-ylamino)-5,6,7,8-tetrahydro[1]benzothieno[2,3-d]pyrimidin-7-yl](2-oxa-6-azaspiro[3.3]hept-6-yl)methanone]
IC50: 22.7 nM

CN(C)C(=O)[C@H]1CCc2c(sc3ncnc(Nc4cc5cn[nH]c5cc4NCCNC(=O)OC(C)(C)C)c23)C1 [Example 244, tert-Butyl {2-[(5-{[(7S)-7-(dimethylcarbamoyl)-5,6,7,8-tetrahydro[1]benzothieno[2,3-d]pyrimidin-4-yl]amino}-1H-indazol-6-yl)amino]ethyl}carbamate]
IC50: 48.3 nM

CC(C)Oc1cc2[nH]ncc2cc1Nc1ncnc2sc3c(c12)CC[C@H](C(=O)N1CC(N(C)C)C1)C3 [Example 219, [3-(Dimethylamino)azetidin-1-yl][(7S)-4-{[6-(propan-2-yloxy)-1H-indazol-5-yl]amino}-5,6,7,8-tetrahydro[1]benzothieno[2,3-d]pyrimidin-7-yl]methanone]
IC50: 0.2 nM

CC(C)Oc1cc2[nH]ncc2c(F)c1Nc1ncnc2sc3c(c12)CC[C@H](C(=O)N(C)C)C3 [Example 129, (7S)-4-{[4-Fluoro-6-(propan-2-yloxy)-1H-indazol-5-yl]amino}-N,N-dimethyl-5,6,7,8-tetrahydro[1]benzothieno[2,3-d]pyrimidine-7-carboxamide]
IC50: 8.9 nM

CCN(C)C(=O)[C@H]1CCc2c(sc3ncnc(Nc4cc5cn[nH]c5cc4N4CCC(N(C)C)CC4)c23)C1 [Example 158, (7S)-4-({6-[4-(Dimethylamino)piperidin-1-yl]-1H-indazol-5-yl}amino)-N-ethyl-N-methyl-5,6,7,8-tetrahydro[1]benzothieno[2,3-d]pyrimidine-7-carboxamide]
IC50: 10 nM

CSc1cc2[nH]ncc2cc1Nc1ncnc2sc3c(c12)CC[C@H](C(=O)N1C[C@@H](C)O[C@@H](C)C1)C3 [Example 252, [(2R,6S)-2,6-Dimethylmorpholin-4-yl][(7S)-4-{[6-(methylsulfanyl)-1H-indazol-5-yl]amino}-5,6,7,8-tetrahydro[1]benzothieno[2,3-d]pyrimidin-7-yl]methanone]
IC50: 1.5 nM

CN(C)C(=O)[C@H]1CCc2c(sc3ncnc(Nc4cc5cn[nH]c5cc4OCCCNC(=O)OC(C)(C)C)c23)C1 [Example 180, tert-Butyl {3-[(5-{[(7S)-7-(dimethylcarbamoyl)-5,6,7,8-tetrahydro[1]benzothieno[2,3-d]pyrimidin-4-yl]amino}-1H-indazol-6-yl)oxy]propyl}carbamate]
IC50: 0.4 nM

C[C@@H]1COCCN1C(=O)[C@H]1CCc2c(sc3ncnc(Nc4cc5cn[nH]c5cc4OCCN4CCCC4)c23)C1 [Example 115, [(3R)-3-Methylmorpholin-4-yl][(7S)-4-({6-[2-(pyrrolidin-1-yl)ethoxy]-1H-indazol-5-yl}amino)-5,6,7,8-tetrahydro[1]benzothieno[2,3-d]pyrimidin-7-yl]methanone]
IC50: 71.5 nM

C[C@@H]1CN(C(=O)[C@H]2CCc3c(sc4ncnc(Nc5cc6cn[nH]c6cc5N(C)C)c34)C2)C[C@H](C)O1 [Example 189, [(7S)-4-{[6-(Dimethylamino)-1H-indazol-5-yl]amino}-5,6,7,8-tetrahydro[1]benzothieno[2,3-d]pyrimidin-7-yl][(2R,6S)-2,6-dimethylmorpholin-4-yl]methanone]
IC50: 0.1 nM

COc1cc2[nH]ncc2cc1Nc1ncnc2sc3c(c12)CC[C@H](C(=O)N1CC(N2CCCCC2)C1)C3 [Example 178, {(7S)-4-[(6-Methoxy-1H-indazol-5-yl)amino]-5,6,7,8-tetrahydro[1]benzothieno[2,3-d]pyrimidin-7-yl}[3-(piperidin-1-yl)azetidin-1-yl]methanone]
IC50: 0.2 nM

C[C@@H]1CN(C(=O)[C@H]2CCc3c(sc4ncnc(Nc5cc6cn[nH]c6cc5N5CCCC5)c34)C2)C[C@H](C)O1 [Example 183, [(2R,6S)-2,6-Dimethylmorpholin-4-yl][(7S)-4-{[6-(pyrrolidin-1-yl)-1H-indazol-5-yl]amino}-5,6,7,8-tetrahydro[1]benzothieno[2,3-d]pyrimidin-7-yl]methanone]
IC50: 0.7 nM
